Data reported in patent publication US7179941B2, “Carbonylamino-substituted acyl phenyl urea derivatives, process for their preparation and their use” (Sanofi-Aventis Deutschland GmbH, priority 2003, dated 2007).

Target: T1, human glycogen phosphorylase a (Homo sapiens, UniProt P06737)
T1 sequence (P06737 1-847): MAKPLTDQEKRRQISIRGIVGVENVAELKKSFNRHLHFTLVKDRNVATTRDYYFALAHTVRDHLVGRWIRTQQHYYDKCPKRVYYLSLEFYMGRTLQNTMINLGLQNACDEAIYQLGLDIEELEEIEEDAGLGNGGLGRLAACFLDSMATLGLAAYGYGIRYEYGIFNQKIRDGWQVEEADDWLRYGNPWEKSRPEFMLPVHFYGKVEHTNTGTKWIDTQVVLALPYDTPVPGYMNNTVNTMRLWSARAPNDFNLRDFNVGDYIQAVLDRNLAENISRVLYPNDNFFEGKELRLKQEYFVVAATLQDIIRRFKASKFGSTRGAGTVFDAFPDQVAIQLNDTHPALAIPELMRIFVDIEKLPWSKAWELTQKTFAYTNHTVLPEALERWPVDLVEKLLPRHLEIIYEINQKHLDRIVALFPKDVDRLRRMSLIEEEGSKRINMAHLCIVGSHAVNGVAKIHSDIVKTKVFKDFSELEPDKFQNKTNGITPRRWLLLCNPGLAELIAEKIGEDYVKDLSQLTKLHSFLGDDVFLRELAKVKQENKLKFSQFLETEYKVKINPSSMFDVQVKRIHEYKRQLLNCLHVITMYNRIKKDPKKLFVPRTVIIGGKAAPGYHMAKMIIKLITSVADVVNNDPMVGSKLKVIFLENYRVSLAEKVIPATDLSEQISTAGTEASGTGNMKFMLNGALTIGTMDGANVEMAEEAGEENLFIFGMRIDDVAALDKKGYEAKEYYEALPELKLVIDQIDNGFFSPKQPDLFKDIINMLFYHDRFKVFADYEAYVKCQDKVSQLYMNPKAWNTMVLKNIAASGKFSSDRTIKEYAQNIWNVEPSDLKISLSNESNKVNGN
Test: Glycogen phosphorylase a activity test
Type: biochemical
Conditions: 10 μM test substance; GPa measured in reverse direction (glycogen synthesis from glucose 1-phosphate)
Description: Glycogen Phophorylase a Activity Test
The effect of compounds on the activity of the active form of glycogen phosphorylase (GPa) was measured in the reverse direction by monitoring the synthesis of glycogen from glucose 1-phosphate by determining the release of inorganic phosphate. All reactions were carried out as duplicate determinations in 96-well microtiter plates (half area plates, Costar No. 3696), and the change in absorption as a consequence of the formation of the reaction product was measured at the wavelength specified below in a Multiskan Ascent Elisa Reader (Lab Systems, Finland).
In order to measure the GPa enzyme activity in the reverse direction, the conversion of glucose 1-phosphate to glycogen and inorganic phosphate was measured by the general method of Engers et al. (Engers HD, Shechosky S, Madsen NB, Can J Biochem 1970 July;48(7):746–754) with the following modifications: human glycogen phosphorylase a (for example containing 0.76 mg of protein/ml (Aventis Pharma Deutschland GmbH), dissolved in buffer solution E (25 mM P-glycerophosphate, pH 7.0, 1 mM EDTA and 1 mM dithiotreitol) was diluted to a concentration of 10 μg of protein/ml with buffer T (50 mM Hepes, pH 7.0, 100 mM KCl, 2.5 mM EDTA, 2.5 mM MgCl2.6H2O) and addition of 5 mg/ml of glycogen. Test substances were prepared as a 10 mM solution in DMSO and diluted to 50 μM with buffer solution T. To 10 μl of this solution were added 10 μl of 37.5 mM glucose dissolved in buffer solution T and 5 mg/ml of glycogen, and also 10 μl of a solution of human glycogen phosphorylase a (10 μg of protein/ml) and 20 μl of 2.5 mM glucose 1-phosphate. The base value of the activity of glycogen phosphorylase a in the absence of test substance was determined by adding 10 μl of buffer solution T (0.1% DMSO). The mixture was incubated at room temperature for 40 minutes and the released inorganic phosphate was determined by means of the general method of Drueckes et al. (Drueckes P, Schinzel R, Palm D, Anal Biochem 1995 Sep. 1;230(1):173–177) with the following modifications: 50 μl of a stop solution of 7.3 mM of ammonium molybdate, 10.9 mM of zinc acetate, 3.6% of ascorbic acid, 0.9% of SDS are added to 50 μl of the enzyme mixture. After 60 minutes of incubation at 45° C., the absorption was measured at 820 nm. To determine the background absorption, the stop solution was added immediately after the addition of the glucose 1-phosphate solution in a separate reaction.

SMILES	% Inhibition at 10 μM	inhibition at 10 µM
COc1ccc(NC(=O)CC(=O)O)cc1NC(=O)NC(=O)c1cc(F)c(F)cc1Cl [Example 6]	100%	
COC(=O)CC(=O)Nc1ccc(N(C)C)c(NC(=O)NC(=O)c2cc(F)c(F)cc2Cl)c1 [Example 74]	98%	
CC(=O)Nc1ccc(N(C)C)c(NC(=O)NC(=O)c2cc(F)c(F)cc2Cl)c1 [Example 71]	97%	
COc1ccc(NC(=O)c2ccccc2OC(F)(F)F)cc1NC(=O)NC(=O)c1cc(F)c(F)cc1Cl [Example 51]	92%	
O=C(O)CC(=O)Nc1ccc(OC(F)(F)F)c(NC(=O)NC(=O)c2cc(F)c(F)cc2Cl)c1 [Example 69]	100%	
O=C(O)CCC(=O)Nc1ccc(Cl)c(NC(=O)NC(=O)c2ccc(Cl)cc2Cl)c1 [Example 81]	97%	
C=CCCC(=O)Nc1ccc(OC)c(NC(=O)NC(=O)c2cc(F)c(F)cc2Cl)c1 [Example 46]	102%	
COC(=O)CCC(=O)Nc1ccc(OC(F)(F)F)c(NC(=O)NC(=O)c2cc(F)c(F)cc2Cl)c1 [Example 67]	101%	
COc1ccc(NC(=O)CCC(=O)O)cc1NC(=O)NC(=O)c1cc(F)c(F)cc1Cl [Example 7]	100%	
COc1ccc(NC(=O)CCCN)cc1NC(=O)NC(=O)c1cc(F)c(F)cc1Cl [Example 53]	100%	
COc1ccc(NC(=O)CN)cc1NC(=O)NC(=O)c1cc(F)c(F)cc1Cl [Example 52]	101%	
COc1cc(C(=O)O)c(NC(=O)C(=O)O)cc1NC(=O)NC(=O)c1cc(F)c(F)cc1Cl [Example 25]	95%	
COc1ccc(NC(=O)CCN)cc1NC(=O)NC(=O)c1cc(F)c(F)cc1Cl [Example 55]	100%	
COc1ccc(NC(=O)COC(C)=O)cc1NC(=O)NC(=O)c1cc(F)c(F)cc1Cl [Example 49]	99%	
COc1ccc(NC(=O)c2cccs2)cc1NC(=O)NC(=O)c1cc(F)c(F)cc1Cl [Example 29]	98%	
COc1ccc(NC(=O)c2cccnc2)cc1NC(=O)NC(=O)c1cc(F)c(F)cc1Cl [Example 28]	89%	
COc1cc(C)c(NC(=O)NC(=O)c2cc(F)c(F)cc2Cl)cc1NC(=O)CC(=O)O [Example 11]	96%	
COc1ccc(NC(=O)c2ccc(F)cc2)cc1NC(=O)NC(=O)c1cc(F)c(F)cc1Cl [Example 40]	98%	
COc1ccc(NC(=O)c2ccco2)cc1NC(=O)NC(=O)c1cc(F)c(F)cc1Cl [Example 32]	102%	
COc1ccc(NC(=O)C2CCCC2)cc1NC(=O)NC(=O)c1cc(F)c(F)cc1Cl [Example 33]	96%	
COC(=O)C(=O)Nc1ccc(OC)c(NC(=O)NC(=O)c2cc(F)c(F)cc2Cl)c1 [Example 2]	99%	
CNCC(=O)Nc1ccc(OC)c(NC(=O)NC(=O)c2cc(F)c(F)cc2Cl)c1 [Example 54]	100%	
CCC(=O)Nc1ccc(OC)c(NC(=O)NC(=O)c2cc(F)c(F)cc2Cl)c1 [Example 30]	101%	
CCOCC(=O)Nc1ccc(OC)c(NC(=O)NC(=O)c2cc(F)c(F)cc2Cl)c1 [Example 59]	103%	
COc1cc(C)c(NC(=O)NC(=O)c2cc(F)c(F)cc2Cl)cc1NC(=O)CCC(=O)O [Example 12]	90%	
COC(=O)C(=O)Nc1cc(NC(=O)NC(=O)c2cc(F)c(F)cc2Cl)c(OC)cc1C [Example 15]	101%	

Other lines, results leading:

% Inhibition at 10 μM	inhibition at 10 µM	SMILES
96%		COC(=O)C(=O)Nc1ccc(Cl)c(NC(=O)NC(=O)c2cc(F)c(F)cc2Cl)c1 [Example 87]
101%		COc1ccc(NC(=O)Cc2ccccc2)cc1NC(=O)NC(=O)c1cc(F)c(F)cc1Cl [Example 37]
	97%	CC(=O)Nc1ccc(N2CCCC2)c(NC(=O)NC(=O)c2cc(F)c(F)cc2Cl)c1 [Example 73, N-{3-[3-(2-Chloro-4,5-difluorobenzoyl)ureido]-4-pyrrolidin-1-ylphenyl}acetamide]
97%		COc1cc(C(=O)O)c(NC(=O)CCC(=O)O)cc1NC(=O)NC(=O)c1cc(F)c(F)cc1Cl [Example 26]
98%		COC(=O)C(=O)Nc1ccc(OC(F)(F)F)c(NC(=O)NC(=O)c2cc(F)c(F)cc2Cl)c1 [Example 65]
	101%	CC(=O)Nc1ccc(OC(F)(F)F)c(NC(=O)NC(=O)c2cc(F)c(F)cc2Cl)c1 [Example 64, N-{3-[3-(2-Chloro-4,5-difluorobenzoyl)ureido]-4-trifluoromethoxyphenyl}acetamide]
100%		O=C(O)CCC(=O)Nc1ccc(Cl)c(NC(=O)NC(=O)c2cc(F)c(F)cc2Cl)c1 [Example 84]
101%		COc1ccc(NC(=O)c2ccccc2F)cc1NC(=O)NC(=O)c1cc(F)c(F)cc1Cl [Example 36]
99%		COc1ccc(NC(=O)CN(C)C)cc1NC(=O)NC(=O)c1cc(F)c(F)cc1Cl [Example 58]
80%		NCCCC(=O)Nc1cccc(NC(=O)NC(=O)c2ccc(Cl)cc2Cl)c1 [Example 79]
97%		COc1ccc(NC(=O)c2cccc(F)c2)cc1NC(=O)NC(=O)c1cc(F)c(F)cc1Cl [Example 45]
91%		COc1cc(C)c(NC(C)=O)cc1NC(=O)NC(=O)c1cc(F)c(F)cc1Cl [Example 14]
83%		COc1ccc(NC(=O)C(=O)c2c[nH]c3ccccc23)cc1NC(=O)NC(=O)c1cc(F)c(F)cc1Cl [Example 42]
103%		COc1ccc(NC(=O)CCC(=O)O)cc1NC(=O)NC(=O)c1ccc(Cl)cc1Cl [Example 83]
98%		O=C(O)CC(=O)Nc1ccc(N2CCCC2)c(NC(=O)NC(=O)c2cc(F)c(F)cc2Cl)c1 [Example 77]
96%		CCN(CC)c1ccc(NC(C)=O)cc1NC(=O)NC(=O)c1cc(F)c(F)cc1Cl [Example 72]
95%		O=C(O)CC(=O)Nc1ccc(Cl)c(NC(=O)NC(=O)c2cc(F)c(F)cc2Cl)c1 [Example 86]
99%		CN(C)c1ccc(NC(=O)CC(=O)O)cc1NC(=O)NC(=O)c1cc(F)c(F)cc1Cl [Example 76]
98%		COCC(=O)Nc1ccc(OC)c(NC(=O)NC(=O)c2cc(F)c(F)cc2Cl)c1 [Example 27]
101%		COc1ccc(NC(=O)C2CCC2)cc1NC(=O)NC(=O)c1cc(F)c(F)cc1Cl [Example 44]
100%		COC(=O)CC(=O)Nc1ccc(OC(F)(F)F)c(NC(=O)NC(=O)c2cc(F)c(F)cc2Cl)c1 [Example 66]
100%		COc1ccc(NC(=O)C(F)F)cc1NC(=O)NC(=O)c1cc(F)c(F)cc1Cl [Example 61]
101%		O=C(NC(=O)c1cc(F)c(F)cc1Cl)Nc1cc(NC(=O)C(=O)O)ccc1OC(F)(F)F [Example 68]

Same assay, conditions: 10 μM test substance; GPa measured in reverse direction (glycogen synthesis from glucose 1-phosphate); 10 µM

% Inhibition at 10 μM	SMILES
94%	COc1ccc(NC(=O)C(C)C)cc1NC(=O)NC(=O)c1cc(F)c(F)cc1Cl [Example 50]
